The record followed here is ChEMBL document CHEMBL2311464, “Potent inhibitors of CDK5 derived from roscovitine: synthesis, biological evaluation and molecular modelling” (Bioorg Med Chem Lett, 2013).

Experiment [1] has as its target Glycogen synthase kinase-3 (Sus scrofa, UniProt B2LUN4+I6LNT8). Nature of the experiment: Inhibition of porcine GSK-3alpha/beta using YRRAAVPPSPSLSRHSSPHQSpEDEEE as substrate measured after 30 mins by scintillation counting.
Experiment [2] has as its target Cyclin-dependent kinase 5/CDK5 activator 1 (Homo sapiens, UniProt Q00535). Briefly: Inhibition of recombinant human CDK5/p25 after 30 mins by scintillation counting. It is filed as protein-complex assay.
The nature of another experiment: cells. The following applies: Homo sapiens, SH-SY5Y, 48 h.
Experiment [3] has as its target Cyclin-dependent kinase 2/cyclin A (Homo sapiens, UniProt P24941). Briefly: Inhibition of recombinant human CDK2/cyclin A after 30 mins by scintillation counting. It is filed as protein-complex assay.
A short description of experiment [4]: Inhibition of porcine brain CK1 delta/epsilon using RRKHAAIGpSAYSITA as substrate measured after 30 mins by scintillation counting. Details: species or system Sus scrofa.
In experiment [5] the test system is SH-SY5Y. Nature of the experiment: Ratio of roscovitine IC50 to compound IC50 for human SH-SY5Y cells after 48 hrs by MTS assay. The class given is functional.
Experiment [6] has as its target Dual specificity tyrosine-phosphorylation-regulated kinase 1A (Homo sapiens, UniProt Q13627). Nature of the experiment: Inhibition of recombinant GST-fused human DYRK1A expressed in Escherichia coli using KKISGRLSPIMTEQ as substrate.
In experiment [7] the test system is SH-SY5Y. Briefly: Ratio of DRF53 IC50 to compound IC50 for human SH-SY5Y cells after 48 hrs by MTS assay. It is filed as functional.

Cyclin-dependent kinase 5/CDK5 activator 1, sequence (Q00535 whole entry): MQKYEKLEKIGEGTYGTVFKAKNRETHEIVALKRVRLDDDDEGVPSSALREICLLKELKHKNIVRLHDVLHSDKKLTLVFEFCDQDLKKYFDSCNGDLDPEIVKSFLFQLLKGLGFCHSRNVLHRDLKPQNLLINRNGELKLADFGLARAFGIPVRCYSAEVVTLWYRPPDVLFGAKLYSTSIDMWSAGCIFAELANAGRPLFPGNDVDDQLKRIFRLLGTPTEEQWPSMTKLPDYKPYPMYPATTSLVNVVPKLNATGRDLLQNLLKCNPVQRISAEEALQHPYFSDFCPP
Cyclin-dependent kinase 5/CDK5 activator 1, sequence (Q15078 whole entry, further chain): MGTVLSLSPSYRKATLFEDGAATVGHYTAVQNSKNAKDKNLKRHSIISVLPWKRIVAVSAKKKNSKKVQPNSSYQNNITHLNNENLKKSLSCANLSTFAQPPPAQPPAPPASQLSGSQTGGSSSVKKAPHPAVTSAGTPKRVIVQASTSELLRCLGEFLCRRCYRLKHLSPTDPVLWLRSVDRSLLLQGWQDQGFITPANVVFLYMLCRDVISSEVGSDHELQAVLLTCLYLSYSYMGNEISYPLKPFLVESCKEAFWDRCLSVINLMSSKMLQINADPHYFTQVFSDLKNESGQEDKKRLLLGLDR
Description for cells: Cytotoxicity against human SH-SY5Y cells after 48 hrs by MTS assay

For the compound `CC(C)[C@H](CO)Nc1nc(Nc2ccnnc2)c2ncn(C(C)C)c2n1`, the IC50 in experiment [1] amounted to 6000 nM; in experiment [2], 41 nM; in the experiment “cells”, 1800 nM; in experiment [3] it was 28 nM; in experiment [4] it was 800 nM.

Turning to `CC(C)[C@H](CO)Nc1nc(Nc2ccncn2)c2ncn(C(C)C)c2n1`, the IC50 was above 10000 nM in experiment [1]; 730 nM in experiment [2]; 1800 nM in the experiment “cells”; 330 nM in experiment [3]; 2800 nM in experiment [4].

In the case of `CC[C@H](CO)Nc1nc(Nc2cncnc2)c2ncn(C(C)C)c2n1`, the IC50 is above 10000 nM in experiment [1]; 42 nM in experiment [2]; 1800 nM in the experiment “cells”; 18 nM in experiment [3]; 600 nM in experiment [4].

On to `CC[C@@H](CO)Nc1nc(Nc2ccnnc2)c2ncn(C(C)C)c2n1`, for which the IC50 in experiment [1] was 7300 nM; in experiment [2], 42 nM; in “cells”, 1800 nM; in experiment [3] it was 29 nM; in experiment [4], 1000 nM.

Consider `CC[C@H](CO)Nc1nc(Nc2cccnc2)c2ncn(C(C)C)c2n1`, for which the IC50 came to 10000 nM in experiment [1]; 25 nM in experiment [2]; 1800 nM in the experiment “cells”; 50 nM in experiment [3]; 1000 nM in experiment [4].

Consider `CC[C@@H](CO)Nc1nc(Nc2ncccn2)c2ncn(C(C)C)c2n1`, for which the IC50 was above 10000 nM in experiment [1]; 11000 nM in experiment [2]; 1800 nM in the experiment “cells”; 7300 nM in experiment [3]; above 10000 nM in experiment [4].

Regarding `CC(C)[C@H](CO)Nc1nc(Nc2ccncc2)c2ncn(C(C)C)c2n1`, the IC50 in experiment [1] worked out at 12000 nM; in experiment [2] it was 21 nM; in the experiment “cells” it was 1800 nM; in experiment [3] it was 20 nM; in experiment [4], 1800 nM.

Consider `CC(C)n1cnc2c(Nc3ccccn3)nc(Cl)nc21`, for which the IC50 in experiment [1] was above 10000 nM; in experiment [2], 2100 nM; in “cells”, 1800 nM; in experiment [3], 6200 nM; in experiment [4] it was 3000 nM.

Take `CC(C)[C@@H](CO)Nc1nc(Nc2cccnc2)c2ncn(C(C)C)c2n1`: the IC50 is above 10000 nM in experiment [1]; 300 nM in experiment [2]; 1800 nM in the experiment “cells”; 120 nM in experiment [3]; 2700 nM in experiment [4].

For `CC[C@@H](CO)Nc1nc(Nc2ccccn2)c2ncn(C(C)C)c2n1`, the IC50 in experiment [1] amounted to 21000 nM; in experiment [2] it was 4100 nM; in “cells”, 1800 nM; in experiment [3] it was 530 nM; in experiment [4], 12000 nM.

For the compound `CC(C)[C@@H](CO)Nc1nc(Nc2ccnnc2)c2ncn(C(C)C)c2n1`, the IC50 in experiment [1] amounted to 4300 nM; in experiment [2] it was 230 nM; in “cells”, 1800 nM; in experiment [3], 120 nM; in experiment [4], 1900 nM.

For the compound `CC[C@@H](CO)Nc1nc(Nc2cncnc2)c2ncn(C(C)C)c2n1`, the IC50 in experiment [1] was above 10000 nM; in experiment [2], 76 nM; in the experiment “cells”, 1800 nM; in experiment [3], 23 nM; in experiment [4] it was 930 nM.

For `CC(C)n1cnc2c(Nc3cncnc3)nc(Nc3cncnc3)nc21`, the IC50 was above 10000 nM in experiment [1]; 360 nM in experiment [2]; 1800 nM in “cells”; 170 nM in experiment [3]; 220 nM in experiment [4].

For the compound `CC(C)[C@@H](CO)Nc1nc(Nc2ccncc2)c2ncn(C(C)C)c2n1`, the IC50 in experiment [1] turned out to be 7800 nM; in experiment [2], 200 nM; in the experiment “cells”, 1800 nM; in experiment [3], 130 nM; in experiment [4] it was 3300 nM.

Regarding `CC(C)n1cnc2c(Nc3cnccn3)nc(Cl)nc21`, the IC50 in experiment [1] is above 10000 nM; in experiment [2], 12000 nM; in “cells”, 1800 nM; in experiment [3], 3100 nM; in experiment [4], 7000 nM.

With `CC(C)n1cnc2c(Nc3cccnc3)nc(Cl)nc21`, the IC50 was above 10000 nM in experiment [1]; 1100 nM in experiment [2]; 1800 nM in the experiment “cells”; 680 nM in experiment [3]; 2100 nM in experiment [4].

For `CC[C@H](CO)Nc1nc(Nc2ccnnc2)c2ncn(C(C)C)c2n1`, the IC50 in experiment [1] turned out to be 13000 nM; in experiment [2] it was 60 nM; in the experiment “cells” it was 1800 nM; in experiment [3], 72 nM; in experiment [4], 500 nM.

In the case of `CC[C@H](CO)Nc1nc(Nc2ccccn2)c2ncn(C(C)C)c2n1`, the IC50 in experiment [1] came to 33000 nM; in experiment [2] it was 2300 nM; in the experiment “cells”, 1800 nM; in experiment [3], 1000 nM; in experiment [4] it was 6200 nM.

With `CC(C)[C@H](CO)Nc1nc(Nc2cccnc2)c2ncn(C(C)C)c2n1`, the IC50 in experiment [1] was 7300 nM; in experiment [2], 22 nM; in “cells” it was 1800 nM; in experiment [3] it was 18 nM; in experiment [4], 2200 nM.

`CC[C@@H](CO)Nc1nc(Nc2ccncn2)c2ncn(C(C)C)c2n1`: the IC50 in experiment [1] is above 10000 nM; in experiment [3], 2000 nM; in experiment [4], 8300 nM.

Take `CC(C)[C@H](CO)Nc1nc(Nc2ccccn2)c2ncn(C(C)C)c2n1`: the IC50 was above 10000 nM in experiment [1]; 1100 nM in experiment [2]; 1800 nM in the experiment “cells”; 800 nM in experiment [3]; 6200 nM in experiment [4].

In the case of `CC(C)[C@H](CO)Nc1nc(Nc2cncnc2)c2ncn(C(C)C)c2n1`, the IC50 was 5000 nM in experiment [1]; 38 nM in experiment [2]; 1800 nM in the experiment “cells”; 20 nM in experiment [3]; 1300 nM in experiment [4].

In the case of `CC(C)[C@@H](CO)Nc1nc(Nc2ccncn2)c2ncn(C(C)C)c2n1`, the IC50 is 22000 nM in experiment [1]; 3200 nM in experiment [2]; 1800 nM in the experiment “cells”; 790 nM in experiment [3]; 4900 nM in experiment [4].

Regarding `CC[C@H](CO)Nc1nc(NCc2ccccc2)c2ncn(C(C)C)c2n1` [SELICICLIB], the concentration for half-maximal inhibition (IC50) in “cells” was 17400 nM; in experiment [4], 2300 nM.

Consider `CC(C)[C@H](CO)Nc1nc(Nc2ncccn2)c2ncn(C(C)C)c2n1`, for which the IC50 in experiment [1] was above 10000 nM; in experiment [2] it was above 10000 nM; in the experiment “cells” it was 1800 nM; in experiment [3] it was above 10000 nM; in experiment [4] it was above 10000 nM.

With `CC[C@H](CO)Nc1nc(Nc2ccncc2)c2ncn(C(C)C)c2n1`, the IC50 in experiment [1] was above 10000 nM; in experiment [2] it was 17 nM; in the experiment “cells” it was 1800 nM; in experiment [3], 38 nM; in experiment [4], 1000 nM.

With `CC(C)n1cnc2c(Nc3ccncc3)nc(Cl)nc21`, the IC50 worked out at 18000 nM in experiment [1]; 7400 nM in experiment [2]; 1800 nM in “cells”; 700 nM in experiment [3]; 2100 nM in experiment [4].

For the compound `CC(C)n1cnc2c(Nc3ccnnc3)nc(Cl)nc21`, the IC50 was above 10000 nM in experiment [1]; 3000 nM in experiment [2]; 1800 nM in “cells”; 1600 nM in experiment [3]; 1100 nM in experiment [4].

Turning to `CC[C@H](CO)Nc1nc(Nc2ncccn2)c2ncn(C(C)C)c2n1`, the IC50 is above 10000 nM in experiment [1]; above 10000 nM in experiment [2]; 1800 nM in “cells”; above 10000 nM in experiment [3]; above 10000 nM in experiment [4].

In the case of `CC(C)[C@@H](CO)Nc1nc(Nc2cncnc2)c2ncn(C(C)C)c2n1`, the IC50 in experiment [1] was 16000 nM; in experiment [2], 370 nM; in “cells”, 1800 nM; in experiment [3], 110 nM; in experiment [4], 2000 nM.

As to `CC(C)n1cnc2c(Nc3cncnc3)nc(Cl)nc21`, the IC50 is above 10000 nM in experiment [1]; 2800 nM in experiment [2]; 1800 nM in “cells”; 180 nM in experiment [3]; 2300 nM in experiment [4].

As to `CC(C)n1cnc2c(Nc3ncccn3)nc(Cl)nc21`, the “Ratio IC50” value with SH-SY5Y [5] and in the experiment on SH-SY5Y [7] was 5 throughout. Further, the IC50 is above 10000 nM in experiment [1]; above 10000 nM in experiment [6]; above 10000 nM in experiment [2]; 1800 nM in the experiment “cells”; above 10000 nM in experiment [3]; 8000 nM in experiment [4].

For `CC(C)[C@@H](CO)Nc1nc(Nc2ccccn2)c2ncn(C(C)C)c2n1`, the IC50 in experiment [1] was above 10000 nM; in experiment [2], 1900 nM; in the experiment “cells”, 1800 nM; in experiment [3] it was 1200 nM; in experiment [4], 11000 nM.

Take `CC[C@@H](CO)Nc1nc(Nc2cccnc2)c2ncn(C(C)C)c2n1`: the IC50 in experiment [1] is above 10000 nM; in experiment [2] it was 90 nM; in the experiment “cells”, 1800 nM; in experiment [3], 14 nM; in experiment [4], 2000 nM.

On to `CC[C@@H](CO)Nc1nc(Nc2ccncc2)c2ncn(C(C)C)c2n1`, for which the IC50 in experiment [1] was 6000 nM; in experiment [2], 50 nM; in “cells” it was 1800 nM; in experiment [3], 50 nM; in experiment [4], above 1000 nM.

Turning to `CC(C)[C@@H](CO)Nc1nc(Nc2ncccn2)c2ncn(C(C)C)c2n1`, the IC50 in experiment [1] was above 10000 nM; in experiment [2], 10000 nM; in the experiment “cells” it was 1800 nM; in experiment [3], 9000 nM; in experiment [4], above 10000 nM.

On to `CC[C@H](CO)Nc1nc(Nc2ccncn2)c2ncn(C(C)C)c2n1`, for which the IC50 is above 10000 nM in experiment [1], 1200 nM in experiment [3] and 5800 nM in experiment [4].
